Experiments:
[1] = test system: carboxypeptidase; assay: Carboxypeptidase treatment of albusnodin; assay type: in vitro ADME; conditions: reports on threaded state, Fig. S9
[2] = chromatographic, C18 column, same gradient; cited from earlier work

Row | Resistance to carboxypeptidase cleavage [1] | Substance | HPLC elution time (used as indication of polarity) [2]
1 | resistant to carboxypeptidase cleavage | albusnodin | 
2 |  | astexin-1 | around 14 minutes
3 |  | astexin-2 | around 14 minutes
4 |  | astexin-3 | around 14 minutes
5 |  | microcin J25 (GGAGHVPEYFVGIGTPISFYG; not fully specified; Microcin J25 lasso peptide; UniProt Q9X2V7 38-58, looked up) | around 17 minutes

— paper PMC5835390 (Chemical communications (Cambridge, England), 2018)
